Marks after values point to notes of the source that are not given here. l = locked nucleic acid (LNA); [5mC] = 5-methylcytosine; d = 2'-deoxy (DNA)
These substances were tested on yeast HSP78 (YDR258C) sequence (assay: Duplex melting temperatures of HSP78 25-mer capture probes (UV spectrophotometer)). Details: 25-mer capture probe duplex with complementary target; design PM = perfectly matched, MM = single mismatch; DNA, LNA_T (T) or LNA_TC (TC) substituted.
For “12800 (DNA ACCATCATCACCCAACCTTGTGTCG; sugars from the 5' end dlddlddldddllddddlddlddld, [5mC] at 2, 12, 13, 24, backbone not given here; further chemistry not fully specified) [compound 12800]”, the “Average duplex melting temp.” value was 74.2 °C. “12802 (DNA TGGCCTAGGGAATCGGTCAGCTTAC; sugars from the 5' end lddldlddddddllddldddldldd, [5mC] at 4, 14, 21, backbone not given here; further chemistry not fully specified) [compound 12802]” was tested, and the “Average duplex melting temp.” value was 83.6 °C. “12803 (DNA TTGGAAACATCGGGGTGCGCTTTTT; sugars from the 5' end lldddddlddlddddldldddldld, [5mC] at 8, 11, 18, backbone not given here; further chemistry not fully specified) [compound 12803]” was tested, and the “Average duplex melting temp.” value was 80.8 °C. With “12804 (DNA GAAACATCGGGGTGCGCTTTTTCAA; sugars from the 5' end ddddldllddddldldddddldldd, [5mC] at 5, 8, 15, 23, backbone not given here; further chemistry not fully specified) [compound 12804]” the “Average duplex melting temp.” value was 83.2 °C. “12805 (DNA GACAGCCTCAGTTAATTGGCCACCA; sugars from the 5' end ddlddldlddddlddlldddlddld, [5mC] at 3, 6, 21, 24, backbone not given here; further chemistry not fully specified) [compound 12805]” was tested, and the “Average duplex melting temp.” value was 82.5 °C. With “12806 (DNA CCGATTAAACGAGAGACAGTATGCT; sugars from the 5' end llddlldddlddddddlddldldld, all C 5-methyl, backbone not given here; further chemistry not fully specified) [compound 12806]” the “Average duplex melting temp.” value was 79.4 °C. “12807 (DNA ATCAAATAGGAATTCAGCTAAAGCC; sugars from the 5' end dlldddldddddldlddllddddld, [5mC] at 3, 15, 18, 24, backbone not given here; further chemistry not fully specified) [compound 12807]” was tested, and the “Average duplex melting temp.” value was 71.4 °C. “12808 (DNA GACCTAAGAACATAAAGCTGGCAAT; sugars from the 5' end ddllldddddldlddddllddlddd, all C 5-methyl, backbone not given here; further chemistry not fully specified) [compound 12808]” was tested, and the “Average duplex melting temp.” value was 78.9 °C. For “12809 (DNA AAATAGCAGCAATGGCCTCGTCTTG; sugars from the 5' end dddlddlddlddlddldlldlddld, [5mC] at 7, 10, 16, 19, backbone not given here; further chemistry not fully specified) [compound 12809]”, the “Average duplex melting temp.” value was 86.8 °C. With “12810 (DNA ATAGCAGCAATGGCCTCGTCTTGGC; sugars from the 5' end dlddldddddlddldldddldlddd, [5mC] at 5, 14, 20, backbone not given here; further chemistry not fully specified) [compound 12810]” the “Average duplex melting temp.” value was 83 °C. For “12811 (DNA GCAATGGCCTCGTCTTGGCCAACGA; sugars from the 5' end d10 l1 d1 l2 d11, [5mC] at 11, 14, backbone not given here; further chemistry not fully specified) [compound 12811]”, the “Average duplex melting temp.” value was 79.3 °C. “12812 (DNA GATGAACTCAGGTGGATAGGATCTT; sugars from the 5' end ddldddllldddldddlddddllld, all C 5-methyl, backbone not given here; further chemistry not fully specified) [compound 12812]” was tested, and the “Average duplex melting temp.” value was 77.3 °C. With “12813 (DNA TCAGTTAGCCAATCCTTCGCTTCAT; sugars from the 5' end llddlddddlddldldlldlddldd, [5mC] at 2, 10, 15, 18, 20, 23, backbone not given here; further chemistry not fully specified) [compound 12813]” the “Average duplex melting temp.” value was 81.8 °C. In the case of “12814 (DNA GTTGCCATGGAGTTCAAAATCTGTC; sugars from the 5' end dlddlldlddddldlddddllddld, [5mC] at 5, 6, 15, 21, backbone not given here; further chemistry not fully specified) [compound 12814]”, the “Average duplex melting temp.” value is reported as 78.3 °C. “12815 (DNA AGACGTACAGCATCAGAAATAGCAG; DNA at AG, LNA at CT, all C 5-methyl, backbone not given here; further chemistry not fully specified) [compound 12815]” was tested, and the “Average duplex melting temp.” value was 81.9 °C. In the case of “12816 (DNA TTTGGTAGCACGACAAGCTTAGTAT; sugars from the 5' end ldlddlddldlddldddldlddldd, all C 5-methyl, backbone not given here; further chemistry not fully specified) [compound 12816]”, the “Average duplex melting temp.” value is reported as 79 °C. For “12817 (DNA ATAAAGCTGGCAATAGGTCTCTTTT; sugars from the 5' end dlddddllddlddldddllldllld, [5mC] at 7, 11, 19, backbone not given here; further chemistry not fully specified) [compound 12817]”, the “Average duplex melting temp.” value was 81.2 °C. In the case of “12818 (DNA TTTTTCGGCCAAACGATCTTGAATT; sugars from the 5' end ldldllddlldddldddldldddld, all C 5-methyl, backbone not given here; further chemistry not fully specified) [compound 12818]”, the “Average duplex melting temp.” value is reported as 77.8 °C. With “12819 (DNA CACTCTAACAGTTTCGCCGTTTCTA; sugars from the 5' end ldldldddldddldddlddldllld, [5mC] at 1, 3, 5, 9, 17, 23, backbone not given here; further chemistry not fully specified) [compound 12819]” the “Average duplex melting temp.” value was 81.9 °C. For “12820 (DNA TCAATGGCCTTGCACCATATAATTG; sugars from the 5' end llddlddldlldlddldldlddlld, [5mC] at 2, 8, 13, 16, backbone not given here; further chemistry not fully specified) [compound 12820]”, the “Average duplex melting temp.” value was 83.5 °C. “12821 (DNA AAAACGACAGCATAAGGCTTTCTTC; sugars from the 5' end ddddlddlddldlddddlldlldld, [5mC] at 5, 8, 11, 18, 22, backbone not given here; further chemistry not fully specified) [compound 12821]” was tested, and the “Average duplex melting temp.” value was 79 °C. “12822 (DNA ATTGACCTCAAAACTTTCTTGGATA; sugars from the 5' end dllddllllddddllldllldddld, all C 5-methyl, backbone not given here; further chemistry not fully specified) [compound 12822]” was tested, and the “Average duplex melting temp.” value was 75.6 °C. For “12823 (DNA CCCAACTTTGTGTCGTTTAATAAAA; sugars from the 5' end llldddllddldlddlllddldddd, [5mC] at 1, 2, 3, backbone not given here; further chemistry not fully specified) [compound 12823]”, the “Average duplex melting temp.” value was 74.8 °C.

These substances were tested on complementary single stranded DNA (3′-ctgNatcc) (assay: Melting temperatures of DNA and LNA 8-mers containing inosine, 2,6-diaminopurine or 2-aminopurine against complementary DNA). Details: duplex 2.5 μM; 0.1M NaCl; 10 mM Na-phosphate (pH 7.0); 1 mM EDTA.
Assay type: binding
With 5′-GACATAGG [Entry 8] the “Tm of the duplex with 3′-ctgaatcc” value was 38.2 °C, the “Tm of the duplex with 3′-ctgcatcc” value was 40.6 °C and the “Tm of the duplex with 3′-ctggatcc” value was 43.4 °C. For the same substance, the “Tm of the duplex with 3′-ctgtatcc” value was 61.6 °C. For 5′-GACDTAGG [Entry 11], the “Tm of the duplex with 3′-ctgaatcc” value was 42.2 °C, the “Tm of the duplex with 3′-ctgcatcc” value was 52.4 °C and the “Tm of the duplex with 3′-ctggatcc” value was 41.4 °C. For the same substance, the “Tm of the duplex with 3′-ctgtatcc” value was 67.8 °C. With 5′-GACGTAGG [Entry 10] the “Tm of the duplex with 3′-ctgaatcc” value was 32^b ° C, the “Tm of the duplex with 3′-ctgcatcc” value was 70.9 °C and the “Tm of the duplex with 3′-ctggatcc” value was 41^b ° C. The “Tm of the duplex with 3′-ctgtatcc” value was 55.0 °C. In the case of 5′-GACITAGG [Entry 13], the “Tm of the duplex with 3′-ctgaatcc” value is reported as 48.2 °C, the “Tm of the duplex with 3′-ctgcatcc” value is reported as 59.9 °C and the “Tm of the duplex with 3′-ctggatcc” value is reported as 43.0 °C. The “Tm of the duplex with 3′-ctgtatcc” value was 53.1 °C. In the case of 5′-GACTTAGG [Entry 9], the “Tm of the duplex with 3′-ctgaatcc” value is reported as 60.7 °C, the “Tm of the duplex with 3′-ctgcatcc” value is reported as 23.5 °C and the “Tm of the duplex with 3′-ctggatcc” value is reported as 36.4 °C. The “Tm of the duplex with 3′-ctgtatcc” value was 28.0 °C. For 5′-GDCDTDGG [Entry 12], the “Tm of the duplex with 3′-ctgaatcc” value was 55.9 °C, the “Tm of the duplex with 3′-ctgcatcc” value was 63.8 °C and the “Tm of the duplex with 3′-ctggatcc” value was 54.7 °C. For the same substance, the “Tm of the duplex with 3′-ctgtatcc” value was 78.3 °C. In the case of “5′-gacatagg [Entry 1, reference compound]”, the “Tm of the duplex with 3′-ctgaatcc” value is reported as under 10 °C, the “Tm of the duplex with 3′-ctgcatcc” value is reported as under 10 °C and the “Tm of the duplex with 3′-ctggatcc” value is reported as under 10 °C. For the same substance, the “Tm of the duplex with 3′-ctgtatcc” value was 23.8 °C. In the case of “5′-gacdtagg [Entry 4, reference compound]”, the “Tm of the duplex with 3′-ctgaatcc” value is reported as under 10 °C, the “Tm of the duplex with 3′-ctgcatcc” value is reported as under 10 °C and the “Tm of the duplex with 3′-ctggatcc” value is reported as under 10 °C. For the same substance, the “Tm of the duplex with 3′-ctgtatcc” value was 23.3 °C. For “5′-gacgtagg [Entry 3, reference compound]”, the “Tm of the duplex with 3′-ctgaatcc” value was under 10 °C, the “Tm of the duplex with 3′-ctgcatcc” value was 25.0 °C and the “Tm of the duplex with 3′-ctggatcc” value was under 10 °C. For the same substance, the “Tm of the duplex with 3′-ctgtatcc” value was under 10 °C. “5′-gacitagg [Entry 6, reference compound]” was tested, and the “Tm of the duplex with 3′-ctgaatcc” value was under 10 °C, the “Tm of the duplex with 3′-ctgcatcc” value was 20.9 °C and the “Tm of the duplex with 3′-ctggatcc” value was under 10 °C. For the same substance, the “Tm of the duplex with 3′-ctgtatcc” value was under 10 °C. For “5′-gacttagg [Entry 2, reference compound]”, the “Tm of the duplex with 3′-ctgaatcc” value was 22.6 °C, the “Tm of the duplex with 3′-ctgcatcc” value was under 10 °C and the “Tm of the duplex with 3′-ctggatcc” value was under 10 °C. The “Tm of the duplex with 3′-ctgtatcc” value was under 10 °C.

Same assay, conditions: entries 1 and 4
“5′-gacdtagg [Entry 4, reference compound]” was tested, and the “destabilization of the duplex on analogous replacement in a DNA octamer” value was 0.5 °C.
